# Experimental data published in patent US20260015352A1, “METHYLTRANSFERASE INHIBITOR AND USE THEREOF” (CYTOSINLAB THERAPEUTICS CO., LTD., priority 2022, published 2026).
# Test system: G401 cells
# Test: G401 ELISA test
# Type: cell-based
# Conditions: Homo sapiens, G-401; G401 cells treated with compounds for 72 hours; ELISA detecting K27 and H3; read-out: G401_ELISA IC50
# Method: • Plate Reader: Envision (Perkinelmner); plate shaker: IKA MTS 2/4; plate Washer: BioTek microplate wisher 405 select; Cell counter: Counterstar (Ruiyu-biotech); Cell culture incubator: MCO-15AC (ThermoFisher); Pipette: BioHit Multichannel. Pipette: 0.2-10 μL, 10-300 μL, 50-1200 μL; Centrifuge: Thermo Centrifuge ST 40R; Pure water system: Millipore Milli-Q Reference system; Refrigerator: Haier −80 degree, −20 degree, and 4-degree refrigerators; cell cryopreservation box: Mr. Frosty™ Gradient Cooling Box Cat #5100-0001
# • McCoys 5A (Modified) culture medium (ATCC); FBS (Gibco); 0.25% Trypsin/EDTA (Gibco); PBS (Hyclone); Penicillin/Streptomycin(100×) (Gibco); DMSO (Sigma); 384 cell culture plate (Corning); 384 detection plate (Greiner); 96 well plate (compound dilution) (Haimen, Qunchao); T75 Cell Culture Bottle (Corning)
# G401 cells were seeded in a 384-well cell culture plate and incubated overnight at 37° C. in a 5% CO2 cell culture incubator, after which the cells were treated with compounds of different concentrations for 72 hours. The 384-well cell culture plate was taken out and upside down in a centrifuge to centrifugeat 300 rpm for 1 minute. After centrifugation, the 384-well cell culture plate was washed twice with PBS, added with lysis solution and lysed for 60 minutes. Then neutralization buffer was added for mixing and incubation was continued for 30 minutes. 20 ul (for detecting K27) and 10 ul (for detecting H3) of cell lysate were extracted from the 384-well cell culture plate and transferred to a 384 ELISA detection plate and incubate overnight at 4° C. The next day, the 384 ELISA plate was taken out and washed 5 times with TBST in a microplate washer. Then, the plate was added with a blocking solution and sealed at room temperature for 1 hour. The blocking solution was discarded and the primary antibody was added and then the plate was incubated at room temperature for 1 hour. After incubation, the plate was washed with TBST 5 times in a microplate washer, then added with secondary antibody and incubated at room temperature for 1 hour. After incubation, the plate was washed with TBST 5 times in a microplate washer, and finally added with color developer for color development. The plate was read with Envision plate reader. The obtained data was converted into inhibition rate using the following calculation method: % Inhibition rate=100−100*(compound absorbance−positive control absorbance)/(negative control absorbance−positive control absorbance), and then the inhibition rate data was subjected to curve fitting using the “logarithmic (inhibitor) and reaction-variable slope (four parameters)” model in GraphPad Prism 5 software.
# The inhibition rate of the compound was calculated as follows: […]
# The compounds of the present invention were tested according to the above experimental method, and some results were shown in Table 3. The test results were classified by A, B, and C, wherein A represents IC50≤0.1 uM; B represents 0.1 uM<IC50≤1 uM; C represents IC50>1 uM
row,SMILES,IC50 [nM]
1,"CC(C(=O)NC1COC1)c1cnc(N[C@@H](C)C23CCC(Nc4ccc5ccnc(Cl)c5n4)(CC2)CC3)nc1 (single isomer, unassigned) [PA166]",≤ 100
2,COc1nccc2ccc(Nc3ccc(CNc4ncc(CC(=O)NC5COC5)cn4)cc3)nc12 [PA001],≤ 100
3,COc1nccc2ccc(Nc3ccc(CNc4ncc(CC(=O)OC(C)(C)C)cn4)cc3)nc12 [PA007],> 1000
4,O=C(Cc1cnc(NCc2ccc(Nc3ccc4ccnc(Cl)c4n3)cc2)nc1)NC1COC1 [PA010],100 to 1000
5,COc1nccc2ccc(Nc3ccc(CNc4cnc(C(C)(C)C(=O)NC5COC5)cn4)cc3)nc12 [PA038],> 1000
6,CC(C(=O)NC1COC1)c1cnc(NCc2ccc(Nc3ccc4ccnc(Cl)c4n3)cc2)nc1 (centres unmarked) [PA044],100 to 1000
7,"O=C(Cc1cnc(NCC23CCC(Nc4ccc5ccnc(Cl)c5n4)(CC2)CC3)nc1)NC1COC1 [PA046, 2-[2-[[4-[(8-chloro-1,7-naphthyridin-2-yl)amino]-1-bicyclo[2.2.2]octyl]methylamino]pyrimidin-5-yl]-N-(oxetan-3-yl)acetamide]",≤ 100
8,O=C(Cc1cnc(NCc2ccc(Nc3ccc4ccncc4n3)cc2)nc1)NC1COC1 [PA048],> 1000
9,O=C(Cc1cnc(NCc2ccc(Nc3ccc4cccnc4n3)cc2)nc1)NC1COC1 [PA051],> 1000
10,C[C@H](C(=O)NC1COC1)c1cnc(NCc2ccc(Nc3ccc4ccnc(Cl)c4n3)cc2)nc1 [PA054],100 to 1000
11,C[C@@H](C(=O)NC1COC1)c1cnc(NCc2ccc(Nc3ccc4ccnc(Cl)c4n3)cc2)nc1 [PA055],> 1000
12,COc1nccc2ccc(Nc3ccc(CNc4ncc(CC(=O)NC5COC5)cn4)cc3)cc12 [PA066],> 1000
13,CNc1nccc2ccc(Nc3ccc(CNc4ncc(CC(=O)NC5COC5)cn4)cc3)nc12 [PA068],100 to 1000
14,O=C(Cc1cnc(NCC23CC(Nc4ccc5ccnc(Cl)c5n4)(C2)C3)nc1)NC1COC1 [PA069],> 1000
15,COc1nccc2ccc(Nc3ccc(CNc4ncc(CC(=O)NC5COC5)cn4)cn3)nc12 [PA070],> 1000
16,COc1ccc2ccc(Nc3ccc(CNc4ncc(CC(=O)NC5COC5)cn4)cc3)nc2n1 [PA073],> 1000
17,N#Cc1nccc2ccc(Nc3ccc(CNc4ncc(CC(=O)NC5COC5)cn4)cc3)nc12 [PA074],> 1000
18,COc1nccc2ccc(NC34CCC(CNc5ncc(C(C)C(=O)NC6COC6)cn5)(CC3)CC4)nc12 (centres unmarked) [PA076],≤ 100

row,SMILES,IC50 [nM]
1,COc1nccc2ccc(NC34CCC(CNc5ncc([C@@H](C)C(=O)NC6COC6)cn5)(CC3)CC4)nc12 [PA077],≤ 100
2,COc1nccc2ccc(NC34CCC(CNc5ncc([C@H](C)C(=O)NC6COC6)cn5)(CC3)CC4)nc12 [PA078],100 to 1000
3,COc1nccc2ccc(NC34CCC(CNc5ncc(CC(=O)NC6COC6)cn5)(CC3)CC4)nc12 [PA079],≤ 100
4,COc1nccc2ccc(Nc3ccc(CNc4ccc(CC(=O)NC5COC5)cc4)cc3)nc12 [PA081],100 to 1000
5,COc1nccc2ccc(Nc3ccc(CNc4ccc(CC(=O)NC5COC5)nc4)cc3)nc12 [PA082],> 1000
6,COc1nccc2ccc(Nc3ccc(CNc4ncc(CC(=O)NCCO)cn4)cc3)nc12 [PA151],> 1000
7,COCCNC(=O)Cc1cnc(NCc2ccc(Nc3ccc4ccnc(OC)c4n3)cc2)nc1 [PA152],100 to 1000
8,CNC(=O)C(NC1CS(=O)(=O)C1)c1cnc(N[C@@H](C)C23CCC(Nc4ccc5ccnc(Cl)c5n4)(CC2)CC3)nc1 (some centres unmarked) [PA162],≤ 100
9,C[C@H](Nc1ncc(C=CC2CS(=O)(=O)C2)cn1)C12CCC(Nc3ccc4ccnc(Cl)c4n3)(CC1)CC2 [PA164],≤ 100
10,C[C@H](Nc1ncc(CNC2CS(=O)(=O)C2)cn1)C12CCC(Nc3ccc4ccnc(Cl)c4n3)(CC1)CC2 [PA165],≤ 100
11,COc1nccc2ccc(NC34CCC([C@H](C)Nc5ncc(C(C)C(=O)NC6COC6)cn5)(CC3)CC4)nc12 (some centres unmarked) [PA168],≤ 100
12,"CC(C(=O)NC1COC1)c1cnc(N[C@@H](C)C23CCC(Nc4ccc5ccnc(Cl)c5n4)(CC2)CC3)nc1 (stereo partly drawn) [PA169, 2-(2-(((S)-1-(4-((8-chloro-1,7-naphthyridin-2-yl)amino)bicyclo[2.2.2]octan-1-yl)ethyl)amino)pyrimidin-5-yl)-N-(oxetan-3-yl)propanamide]",≤ 100
13,C[C@H](Nc1ncc(CNCCC#N)cn1)C12CCC(Nc3ccc4ccnc(Cl)c4n3)(CC1)CC2 [PA170],≤ 100
14,CC(Nc1ncc(CC(=O)N(CCC#N)C2COC2)cn1)C12CCC(Nc3ccc4ccnc(Cl)c4n3)(CC1)CC2 (centres unmarked) [PA171],≤ 100
15,C[C@H](Nc1ncc(C(O)C(=O)NC2COC2)cn1)C12CCC(Nc3ccc4ccnc(Cl)c4n3)(CC1)CC2 (some centres unmarked) [PA174],≤ 100
16,C[C@H](Nc1ncc(CC(=O)NC2COC2)cn1)C12CCC(Nc3ccc4ccnc(Cl)c4n3)(CC1)CC2 [PA176],≤ 100
17,CC(C(=O)N(CCC#N)C1COC1)c1cnc(N[C@@H](C)C23CCC(Nc4ccc5ccnc(Cl)c5n4)(CC2)CC3)nc1 (some centres unmarked) [PA177],≤ 100

# Continued, values first:
row,IC50 [nM],SMILES
1,100 to 1000,"COc1nccc2ccc(Nc3ccc(C(C)Nc4ncc(CC(=O)NC5COC5)cn4)cc3)nc12 (racemic) [PA039, 2-(2-((1-(4-((8-methoxy-1,7-naphthyridin-2-yl)amino)phenyl)ethyl)amino)pyrimidin-5-yl) acetic acid N-(oxetan-3-yl) acetamide]"
2,≤ 100,"COc1nccc2ccc(Nc3ccc(CNc4ncc(C(C)C(=O)NC5COC5)cn4)cc3)nc12 (racemic) [PA041, 2-[2-[[4-[(8-methoxy-1,7-naphthyridin-2-yl)amino]phenyl]methylamino]pyrimidin-5-yl]-N-(oxetan-3-yl) propanamide]"
3,≤ 100,"COc1nccc2ccc(Nc3ccc(CNc4ncc([C@H](C)C(=O)NC5COC5)cn4)cc3)nc12 (single isomer, unassigned) [PA042, 2-[2-[[4-[(8-methoxy-1,7-naphthyridin-2-yl)amino]phenyl]methylamino]pyrimidin-5-yl]-N-(oxetan-3-yl) propanamide]"
4,100 to 1000,"COc1nccc2ccc(Nc3ccc(CNc4ncc([C@@H](C)C(=O)NC5COC5)cn4)cc3)nc12 (single isomer, unassigned) [PA043, 2-[2-[[4-[(8-methoxy-1,7-naphthyridin-2-yl)amino]phenyl]methylamino]pyrimidin-5-yl]-N-(oxetan-3-yl) propanamide]"
5,100 to 1000,"COc1nccc2ccc(Nc3ccc([C@@H](C)Nc4ncc(CC(=O)NC5COC5)cn4)cc3)nc12 (single isomer, unassigned) [PA062, 2-(2-((1-(4-((8-methoxy-1,7-naphthyridin-2-yl)amino)phenyl)ethyl)amino)pyrimidin-5-yl) acetic acid N-(oxetan-3-yl) acetamide]"
6,> 1000,"C[C@H](Nc1ncc(CNC2CS(=O)(=O)C2)cn1)c1ccc(Nc2ccc3ccnc(Cl)c3n2)c(F)c1 (single isomer, unassigned) [PA248]"
7,≤ 100,COc1nccc2ccc(Nc3ccc(CNc4ncc(CC(=O)NC5COC5)cn4)c(F)c3)nc12 [PA034]
8,≤ 100,"COc1nccc2ccc(Nc3ccc([C@H](C)Nc4ncc(CC(=O)NC5COC5)cn4)cc3)nc12 [PA061, 2-(2-((1-(4-((8-methoxy-1,7-naphthyridin-2-yl)amino)phenyl)ethyl)amino)pyrimidin-5-yl) acetic acid N-(oxetan-3-yl) acetamide]"
9,≤ 100,COc1nccc2ccc(Nc3ccc(CNc4ncc(CC(=O)NC5COC5)cn4)cc3F)nc12 [PA153]
10,100 to 1000,COc1nccc2ccc(Nc3ccc(CNc4ncc(CNC5COC5)cn4)cc3)nc12 [PA154]
11,≤ 100,COc1nccc2ccc(Nc3ccc([C@H](C)Nc4ncc(C(C)NC5CS(=O)(=O)C5)cn4)cc3F)nc12 (some centres unmarked) [PA163]
12,≤ 100,"Cc1ccc2ccc(Nc3ccc([C@H](C)Nc4ncc(CNC5CS(=O)(=O)C5)cn4)cc3F)nc2c1Cl [PA167, (S)-3-(2-(1-(4-(8-chloro-7-methylquinolin-2-amino)-3-fluorophenyl)ethylamino)pyrimidin-5-ylmethylamino)thietan-1,1-dione]"
13,≤ 100,COc1nccc2ccc(Nc3ccc([C@H](C)Nc4ncc(CNC5CS(=O)(=O)C5)cn4)cc3F)nc12 [PA172]
14,≤ 100,COc1nccc2ccc(Nc3ccc([C@H](C)Nc4ncc(CN5CC(C#N)C5)cn4)cc3F)nc12 [PA173]
15,≤ 100,COc1nccc2ccc(Nc3ccc([C@H](C)Nc4ncc(CNC5C[S+]([O-])C5)cn4)cc3F)nc12 (some centres unmarked) [PA175]
